According to US12428446B2, “Peptide compound or pharmaceutically acceptable salt thereof” (Eyebio Korea, priority 2019, dated 2025):
Where no end group is shown, it is not given here. [ ]: non-standard residue; d: D form. Pro(cis-4-F) = O=C(O)[C@@H]1C[C@H](F)CN1; Hyp = O=C(O)[C@@H]1C[C@@H](O)CN1

How the values were obtained:
[1] = test system: IL-6 secretion, Raw 264.7 cells; experiment: Anti-inflammatory efficacy: IL-6 ELISA in LPS-stimulated Raw 264.7 macrophages; assay type: cell-based, mouse; details: for anti-inflammatory activity by regulating the secretion of IL-6: summary, concentration not given; for IL-6 level increased by LPS: 1 μM peptide, 1 h pretreatment, LPS 1 μg/ml 24 h
Experimental: (§1) An anti-inflammatory efficacy was evaluated for representative examples of the above examples. Specifically, in order to confirm whether Examples 10, 32, 41, 55, 59 and 91, which are representative examples of 5 amino acid residues, Examples 11 and 30, which are representative examples of 6 amino acid residues, Example 86, which is a representative example of 7 amino acid residues, and Examples 103 and 104, which are representative examples of 8 amino acid residues, have an anti-inflammatory effect, a change in the secretion amount of inflammatory cytokines was confirmed by enzyme-linked immunosorbent assay (ELISA) using Raw 264.7 cells, which are macrophage (monocyte) cell lines.
(§2) Specifically, the Examples were diluted in Raw264.7 cells (Korean Cell Line Bank, 40071) at a concentration of 10 nM, 100 nM, 1 μM, and 10 μM, respectively, and pretreated for 1 hour, and then LPS (Sigma, L6529) at a concentration of 1 μg/ml was added to induce an inflammatory response. After 24 hours of induction, the cell culture supernatant was collected and analyzed. Enzyme-linked immunosorbent assay was performed using Mouse IL-6 Quantikine ELISA Kit (R&D systems, M6000B), TNF-alpha Quantikine ELISA Kit (R&D systems, MTA00B), Mouse IL-1 beta/IL-1F2 Quantikine ELISA Kit (R&D systems, MLB00C) in accordance with the manufacturer's manual.

[2] = Evaluation of dissolution stability (content change on storage in dissolved state); assay type: physicochemical; details: 1 mg/1 ml dissolved state, 40° C. and RH 75%
[3] = test system: IL-1β secretion, Raw 264.7 cells; experiment: Anti-inflammatory efficacy: IL-1β ELISA in LPS-stimulated Raw 264.7 macrophages; assay type: cell-based, mouse; details: for IL-1β level increased by LPS: 1 h pretreatment, LPS 1 μg/ml 24 h; for anti-inflammatory effect by regulating the secretion of IL-1β: summary, concentration not given
Experimental: as §1, §2

Substance: Hyp-Gly-Gln-Asp-Leu ([Hyp]GQDL) [Example 32]
- anti-inflammatory activity by regulating the secretion of IL-6 [1]: significant anti-inflammatory activity
- Day 1 content (%) [2]: 96.81%
- Day 3 content (%) [2]: 93.57%
- Day 7 content (%) [2]: 90.50%
- Initial content (%) [2]: 98.05%
- IL-1β level increased by LPS ([3]; 10 nM peptide): significantly reduced
- IL-1β level increased by LPS ([3]; 100 nM peptide): significantly reduced
- IL-1β level increased by LPS ([3]; 1 μM peptide): significantly reduced
- anti-inflammatory effect by regulating the secretion of IL-1β [3]: significant anti-inflammatory effect

Substance: Hyp-Gly-Gln-Glu-Val ([Hyp]GQEV) [Example 91]
- IL-6 level increased by LPS [1]: significantly reduced
- anti-inflammatory activity by regulating the secretion of IL-6 [1]: significant anti-inflammatory activity
- Day 1 content (%) [2]: 99.10%
- Day 3 content (%) [2]: 98.74%
- Day 7 content (%) [2]: 98.68%
- Initial content (%) [2]: 99.08%
- IL-1β level increased by LPS ([3]; 10 nM peptide): reduced
- IL-1β level increased by LPS ([3]; 100 nM peptide): reduced
- IL-1β level increased by LPS ([3]; 1 μM peptide): reduced
- IL-1β level increased by LPS ([3]; 10 μM peptide): reduced
- anti-inflammatory effect by regulating the secretion of IL-1β [3]: significant anti-inflammatory effect

Substance: cis-4F-Pro-Gly-Gln-Asp-Gly ([Pro(cis-4-F)]GQDG) [Example 41]
- IL-6 level increased by LPS [1]: significantly reduced
- anti-inflammatory activity by regulating the secretion of IL-6 [1]: significant anti-inflammatory activity
- Day 1 content (%) [2]: 93.20%
- Day 3 content (%) [2]: 91.07%
- Day 7 content (%) [2]: 85.34%
- Initial content (%) [2]: 96.95%
- IL-1β level increased by LPS ([3]; 100 nM peptide): significantly reduced
- anti-inflammatory effect by regulating the secretion of IL-1β [3]: significant anti-inflammatory effect
